According to US20120035265A1, “COMPOSITIONS, METHODS, AND DEVICES FOR THE TREATMENT OF DYSMENORRHEA” (MediciNova, Inc., priority 2010, published 2012):
Like-named read-outs stand apart in the source and are kept apart here.

Tested on: uterine muscle isolated from pregnant rats
Assay: Oxytocin-induced contraction of uterine muscle isolated from pregnant rats
Type: cell-based, rat
Conditions: Rattus norvegicus, contraction induced with 1 mU/mL of oxytocin, mean ± standard error of 10 samples
Procedure: After SD-strain rats on Day 17 of pregnancy were exsanguinated to death, the uterus was isolated to prepare up to 8 myometrial strips (about 4 mm×10 mm) per animal in the direction of the longitudinal muscle while avoiding the adhesion to the placenta. Each strip was suspended in an organ bath containing 10 mL of a modified Locke-Ringer solution at […] (aerated with 95% O2+5% CO2 gas) with a load of about 1.0 g. After the suspended sample became stable for static tension, 5 μg/mL of PG F2α or 1 mU/mL of oxytocin was added to induce contraction. After the sample was allowed to stand for at least 30 minutes to confirm stable rhythmic contraction for frequency and amplitude, the test, control, or positive control substance solution was added cumulatively at intervals of 5 minutes. After the treatment was completed, 1×10^−5 mol/L of forskolin was added to obtain maximal relaxation. The contractile force of the uterine sample was delivered via a force displacement transducer to a strain pressure amplifier and recorded on a Rectigraph.
Considering the sum of the uterine contraction for 5 minutes before treatment as 100%, the response rate to each concentration of the test, control, or positive control substance solution was calculated from the sum of uterine contraction after treatment for both PG F2α and oxytocin induced contraction. Then, the response rates obtained were used to prepare a concentration-response curve for each sample. The maximum relaxation obtained by adding forskolin was considered as a baseline. Variable points (peaks) with amplitude (tension) of […] or lower were excluded from analysis. Samples showing any of the following events were not used for the study or excluded from analysis.
Microsoft® Excel 2000 (Microsoft Corp.) was used to sum up and calculate data and prepare tables and figures. Using a concentration-response curve prepared for each sample (X axis: log value of the concentration of the substance added, Y axis: response rate), a negative log value (pEC50) of the concentration that inhibited the uterine contraction by 50% (EC50) was calculated from a straight line connecting the 2 concentrations just above and below 50%, and then converted to EC50 (unit: mol/L).

EC50 (read-out: EC50): 2.25 ± 0.44 nM
EC50 (read-out: pEC50 (converted)): 1.86 nM
Compound: CN(C)C(=O)COc1ccc2c(c1)C[C@@H](NC[C@H](O)c1ccc(O)c(CCO)c1)CC2 [MN-221, (−)-bis(2-{[(2S)-2-({(2R)-2-hydroxy-2-[4-hydroxy-3-(2-hydroxyethyl)phenyl]ethyl}amino)-1,2,3,4-tetrahydronaphthalen-7-yl]oxy}-N,N-dimethyl-acetamide) monosulfate]
